In one test the test system is CKAP4. The experiment in a line: SPR binding to CKAP4 recombinant proteins (overall statements). As to conditions: comparison of as-APF, APF and control peptide. The procedure: (§1) All SPR experiments were performed on a Biacore X-100 instrument (GE Healthcare) with the chip surface at 25 °C using PBS containing 0.01% Tween-20 as running buffer. CKAP4 recombinant proteins were immobilized individually either by Ni^2+/nitrilotriacetic acid (NTA) chelation on Sensor Chip NTA or by amine-coupling on Sensor Chip CM5, on the Fc2 channel. For amine-coupling, the sensor surface on both flow cells was activated for 7 min with a 1:1 mixture of 0.1 M EDC (1-ethyl-3-(3-dimethylaminopropyl) carbodiimide hydrochloride) and 0.1 M NHS (N-hydroxysuccinimide) at a flow rate of 5 μl/min. Immobilization of CKAP4 proteins (on Fc2) was performed in 10 mM sodium acetate buffer, at either pH 4.5, 5.0, or 5.5 based on preliminary pH scouting runs, for optimal binding. Unreacted NHS groups were quenched with a 7 min injection of 1 M ethanolamine pH 8.5. The Fc1 channel was treated similarly but without CKAP4 and served as a reference. Upon stabilization of the baseline signal, multi-cycle kinetics assays were performed with injections of as-APF as analyte at various concentrations (2.5–40 μM) in running buffer at 30 μl/min for 2 min, immediately followed by a 3 min dissociation phase. […] The data were analyzed using Biacore Evaluation software V2.0. […]
On the technique in general: SPR reads the build-up and loss of mass on a sensor chip optically.

The target in another test is T1, CKAP4_127–602 (Homo sapiens, UniProt Q07065).
T1 construct: encompassing only the extracellular domain (Aa 127–602) tagged at the C-terminus with a His-tag (CKAP4_127–602); His-tag (C); made in house; host or cells: E. coli BL21(DE3)pLysS
T1 sequence (Q07065 127-602): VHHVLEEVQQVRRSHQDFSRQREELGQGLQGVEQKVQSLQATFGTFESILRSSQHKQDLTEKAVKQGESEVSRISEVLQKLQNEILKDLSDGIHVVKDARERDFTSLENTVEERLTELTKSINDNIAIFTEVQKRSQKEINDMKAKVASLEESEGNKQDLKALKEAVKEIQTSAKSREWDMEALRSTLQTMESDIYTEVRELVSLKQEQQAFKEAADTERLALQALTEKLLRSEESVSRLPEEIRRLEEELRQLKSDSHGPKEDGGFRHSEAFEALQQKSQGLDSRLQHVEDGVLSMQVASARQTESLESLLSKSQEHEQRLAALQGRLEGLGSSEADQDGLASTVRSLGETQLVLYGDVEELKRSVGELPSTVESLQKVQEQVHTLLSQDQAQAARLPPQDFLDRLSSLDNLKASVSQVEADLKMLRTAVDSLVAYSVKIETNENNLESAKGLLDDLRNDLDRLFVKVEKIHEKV
The test is described as follows: SPR, CKAP4_127–602 as immobilized ligand. Conditions: CKAP4_127–602 immobilized on NTA chip. Format: binding. The procedure: as §1

For the substance “Neu5Acα2 − 3Galβ1 − 3GalNAcα-O-TVPAAVVVA [APF]”, the “binding to CKAP4 (in words)” value with CKAP4 is on record as “bound to CKAP4 with high specificity compared to control APF peptide”. The binding result on CKAP4_127–602 is “did not bind robustly”.

Source of the values: publication PMC5594493, “Antiproliferative factor (APF) binds specifically to sites within the cytoskeleton-associated protein 4 (CKAP4) extracellular domain” (BMC Biochemistry, 2017).
